Reference: ChEMBL document CHEMBL6153162, “Receptor-Interacting Protein Kinase 1 (RIPK1) Inhibitors as Potential Treatment for Several Inflammatory and Neurodegenerative Diseases” (ACS Med Chem Lett, 2025)

Target: PI3-kinase p110-delta/p85-alpha (Homo sapiens, UniProt O00329)
Assay: Inhibition of His-tagged full-length recombinant human PIK3CD/PIK3R1 extracted from baculovirus expression system incubated for 1 hr by FRET assay

Chain of PI3-kinase p110-delta/p85-alpha (P27986 whole entry): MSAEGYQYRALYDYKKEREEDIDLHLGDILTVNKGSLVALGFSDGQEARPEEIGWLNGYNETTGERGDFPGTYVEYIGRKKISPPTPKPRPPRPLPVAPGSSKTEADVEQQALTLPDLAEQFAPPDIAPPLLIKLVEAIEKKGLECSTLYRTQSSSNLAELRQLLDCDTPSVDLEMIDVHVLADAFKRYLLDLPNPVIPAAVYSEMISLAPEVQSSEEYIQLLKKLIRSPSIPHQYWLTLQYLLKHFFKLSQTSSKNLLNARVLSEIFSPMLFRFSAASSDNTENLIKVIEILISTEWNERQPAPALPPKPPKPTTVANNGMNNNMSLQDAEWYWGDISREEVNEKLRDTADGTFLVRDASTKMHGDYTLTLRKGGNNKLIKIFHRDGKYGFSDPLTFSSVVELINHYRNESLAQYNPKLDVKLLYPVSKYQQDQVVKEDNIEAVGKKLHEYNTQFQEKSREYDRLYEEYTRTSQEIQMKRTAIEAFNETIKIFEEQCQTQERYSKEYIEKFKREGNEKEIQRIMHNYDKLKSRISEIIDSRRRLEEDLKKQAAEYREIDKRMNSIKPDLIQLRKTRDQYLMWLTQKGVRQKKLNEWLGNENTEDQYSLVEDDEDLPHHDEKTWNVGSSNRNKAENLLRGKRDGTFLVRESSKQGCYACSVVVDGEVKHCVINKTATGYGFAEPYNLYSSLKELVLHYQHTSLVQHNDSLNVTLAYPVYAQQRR
Chain of PI3-kinase p110-delta/p85-alpha (O00329 whole entry): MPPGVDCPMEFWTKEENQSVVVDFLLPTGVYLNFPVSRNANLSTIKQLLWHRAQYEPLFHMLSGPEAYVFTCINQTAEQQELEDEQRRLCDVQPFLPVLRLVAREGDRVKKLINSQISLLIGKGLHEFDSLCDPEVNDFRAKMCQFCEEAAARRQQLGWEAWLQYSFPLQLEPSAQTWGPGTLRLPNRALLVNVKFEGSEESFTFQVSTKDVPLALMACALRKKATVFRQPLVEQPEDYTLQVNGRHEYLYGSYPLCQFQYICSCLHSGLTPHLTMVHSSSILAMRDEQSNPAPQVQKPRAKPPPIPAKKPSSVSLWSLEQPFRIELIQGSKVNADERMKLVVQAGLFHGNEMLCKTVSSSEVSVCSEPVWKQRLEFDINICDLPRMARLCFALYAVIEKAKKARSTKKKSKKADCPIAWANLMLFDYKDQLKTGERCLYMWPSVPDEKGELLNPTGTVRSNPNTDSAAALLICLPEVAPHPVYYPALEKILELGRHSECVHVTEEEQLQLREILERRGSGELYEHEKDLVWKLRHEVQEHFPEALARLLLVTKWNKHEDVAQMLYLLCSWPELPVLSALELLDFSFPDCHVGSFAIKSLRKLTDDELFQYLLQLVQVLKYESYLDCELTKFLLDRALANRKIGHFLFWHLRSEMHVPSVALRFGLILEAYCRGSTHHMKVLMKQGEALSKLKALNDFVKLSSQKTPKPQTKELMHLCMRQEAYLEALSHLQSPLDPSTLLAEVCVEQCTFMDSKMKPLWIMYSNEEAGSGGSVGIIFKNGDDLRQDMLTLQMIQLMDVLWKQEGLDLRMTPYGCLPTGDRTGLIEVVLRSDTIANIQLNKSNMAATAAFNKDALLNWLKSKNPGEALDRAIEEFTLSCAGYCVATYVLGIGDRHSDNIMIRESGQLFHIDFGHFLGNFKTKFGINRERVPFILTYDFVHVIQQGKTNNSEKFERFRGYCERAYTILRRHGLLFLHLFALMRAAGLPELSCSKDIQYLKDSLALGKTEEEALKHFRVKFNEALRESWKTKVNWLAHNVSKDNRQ

| SMILES | IC50 |
| --- | --- |
| Cc1cc(F)c(-c2ccn3nc(N)nc3c2)cc1C(=O)NCCC(O)c1ccc(C(F)(F)F)cc1 (racemic) | > 15 nM |
| Cc1ccc(-c2ccn3nc(N)nc3c2)c(F)c1C(=O)NCC(F)(F)C(O)C1CC(F)(F)C1 (single isomer, unassigned) | > 15 nM |
| COc1c(F)cccc1C(O)CCNC(=O)c1c(C)ccc(-c2ccn3nc(N)nc3c2)c1F (single isomer, unassigned) | 15 nM |
| Cc1ccc(-c2ccn3nc(N)nc3c2)c(F)c1C(=O)NCC(F)(F)C(O)c1ccc(Cl)c(Cl)c1 (single isomer, unassigned) | > 15 nM |

Now from value to molecule:

| IC50 | SMILES |
| --- | --- |
| > 15 nM | Cc1ccc(-c2ccn3nc(N)nc3c2)c(F)c1C(=O)NC(CF)CC(O)c1ccc(Cl)cc1 (stereo not drawn) |
| > 15 nM | Cc1ccc(-c2ccn3nc(N)nc3c2)c(F)c1C(=O)NC[C@@H](F)[C@H](O)c1ccc(Cl)cc1 |
| > 15 nM | Cc1ccc(-c2ccn3nc(N)nc3c2)c(F)c1C(=O)NCCC(O)c1ccc(Cl)cn1 (stereo not drawn) |
| > 15 nM | Cc1ccc(-c2ccn3nc(N)nc3c2)c(F)c1C(=O)NCCC(F)c1ccc(Cl)cc1 (racemic) |
